Reference: patent publication US7910579B2, “Benzoxazole derivatives” (Tohoku University, priority 2006, dated 2011)
Where two headings read alike, the source gives them in different places.

Columns and labels:
[1] = molecular target: T1, amyloid β protein in the brain section of an Alzheimer disease patient (Homo sapiens, UniProt P05067); assay: Staining test on a brain section of an Alzheimer disease patient: amyloid β protein; format: binding; settings: for Binding to (staining of) amyloid β protein in the brain section of an Alzheimer disease patient: 100 μM solution in 50% ethanol, 10 minutes, paraffin brain section; for Specificity to amyloid β: statement in the description of formulae (II) to (VI)
T1 construct: from tissue; host or cells: paraffin-embedded temporal lobe and hippocampus of Alzheimer disease patients
Text: (1) Brain specimens at the temporal lobe and the hippocampus of patients to which a definitive diagnosis of Alzheimer disease had been given, and those of normal senile persons were used. The specimens were given by our coworker, Fukushimura Hospital, Longevity Medicine Institute, and we were given their consent of use of the specimens for our study purpose by the bereaved of the patients (Fukushimura Hospital Ethical Review Board Approval No. 20).
(2) The paraffin-embedded brain tissue was cut Into slices having a thickness of 6 μm or 8 μm, and extended and dried on a slide. The paraffin brain section was steeped for paraffin removal in xylene twice for 10 minutes, 100% ethanol twice for 5 minutes, 90% ethanol for 5 minutes and running water for 10 minutes in that order.
(3) For pretreatment prior to the staining treatment with a compound of the invention, the sections were steeped for autofluorescence removal with lipofuscin. First, the paraffin-removed sections were dipped in 0.25% KMnO4 solution for 20 minutes. These were washed with PBS, twice for 2 minutes, then dipped in 0.1% K2S2O5/oxalic acid solution for about 5 seconds, and then further washed with PBS, three times for 2 minutes.
(4) About 150 μl of a 100 μM solution of a compound of the invention dissolved in 50% ethanol was dropwise applied to the section and reacted for 10 minutes. After dipped five times in tap water, the section was entrapped with Fluor Save Reagent (Calbiochem), and analyzed through microscopy with a fluorescence microscope (Nikon, Eclipse 80i). The images were taken with a digital camera (Nikon Dxm 1200F or Photometrics' Cool SNAP ES).
(1) After paraffin removal, the sections were washed in distilled water, twice for 2 minutes. Then, using ImmunoPen, the tissue was marked with a surrounding line; about 150 μl of formic acid was dropwise applied to the section and statically left at room temperature for 5 minutes. The section was washed with tap water for 5 minutes, then dipped in cold PBS-Tween 20 for 2 minutes, and thereafter about 150 μl of 0.05% trypsin solution was dropwise applied to it and reacted at 37° C. for 15 minutes.
(2) In an ice bath, this was washed with cold PBS-Tween 20, twice for 5 minutes, and then 2 drops of blocking serum were applied to it and reacted at 37° C. for 30 minutes. Excess water was removed, and then about 150 μl of a specific antibody to amyloid β protein, 6F/3D (by DAKO, 1/50 dilution) was dropwise applied to it, and reacted at 37° C. for 1 hour.
(3) Further, this was washed with cold PBS-Tween 20, 5 times for 2 minutes, and then 2 drops of an anti-mouse IgG (H+L), goat, biotin-binding solution were applied to it and reacted at 37° C. for 1 hour. Then, this was washed with cold PBS-Tween 20, three times for 2 minutes, and 2 drops of an ABC solution (streptoavidin-biotin-peroxidase composite solution) were applied to it, and left statically as such for 30 minutes. Again this was washed with cold PBS-Tween 20, three times for 2 minutes, and then about 150 μl of a DAB solution (10 mg of DAB was dissolved in 20 ml of 0.05 mol/liter tris-HCl buffer, and just before use, 100 μl of 3% hydrogen peroxide water was added to it) was dropwise applied to it for sufficiently staining it. Then, this was washed with distilled water for 1 minute to stop the reaction, then entrapped and observed through microscopy.

Acute Toxicity Test = format: in vivo; settings: Crj:CD1 male mice, tail vein, observed for 7 days
Description: The compounds of the invention were tested for their acute toxicity through intravenous administration thereof to mice. Four Crj:CD1 male mice formed one test group, and some test groups of those mice were used (the mean body weight of the mice of each group was from 31 to 32 g). A test compound was dissolved in a mixture of 1 N HCl, polyethylene glycol-400 and distilled water, or dissolved in DMSO, and then diluted with distilled water. This was administered to each mouse via its tail vein.

Amyloid β protein 1-40 = molecular target: T2, Amyloid β protein 1-40 (Homo sapiens, UniProt P05067); assay: Fluorescence Congo Red Method; format: binding; settings: 1 h, compound 10 μM, amyloid β protein 5 μM
T2 construct: Amyloid β protein 1-40 (bought from Peptide Laboratory); purchased Peptide Laboratory
Description: Next described is a screening method for the compounds of the invention. Some of the compounds of the invention could not be screened according to a Thioflavin T method, since their fluorescence wavelength overlaps with that of Thioflavin T. For such compounds, the following novel screening method was introduced. (1) Amyloid β protein 1-40 (bought from Peptide Laboratory) was dissolved in a phosphate buffer (pH 7.4) and left at 37° C. for 4 days. (2) 50 μl of Congo red dissolved in the buffer was applied to a 96-well microplate (final concentration, 0.1, 0.3, 1 μM). (3) 100 μl of amyloid β protein was added to it (final concentration 5 μM), and left as such for 30 minutes. (4) 100 μl of a test compound dissolved in the buffer was added to it (final concentration, 10 μM, and left as such for 60 minutes. (5) Using a fluorescence microplate reader (Spectra Max 190 by Molecular Device), the sample was analyzed at the optimum exciting wavelength and the test wavelength that had been previously determined. (6) The fluorescence intensity in the presence of the test compound, amyloid β protein and Congo red is represented by A; that in the presence of the test compound and Congo red is by B; that in the presence of the test compound and amyloid β protein is by C; and that in the presence of only the test compound is by D. The β structure recognition of the test compound is computed according to the following formula: β structure recognition (%) of test compound={(A−B)/(C−D)}×100. (7) It may be said that the test compound having a higher β structure recognition percentage may have higher binding specificity to amyloid β protein.

[2] = Congo red 0.1 μM, read-out: Binding Percentage of Compound in the presence of 0.1 μM CR
[3] = Congo red 0.3 μM, read-out: Binding Percentage of Compound in the presence of 0.3 μM CR
[4] = Congo red 1 μM, read-out: Binding Percentage of Compound in the presence of 1 μM CR

T1 sequence (P05067 672-713 limits assumed): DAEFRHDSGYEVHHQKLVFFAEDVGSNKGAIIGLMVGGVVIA
T2 sequence (P05067 672-711): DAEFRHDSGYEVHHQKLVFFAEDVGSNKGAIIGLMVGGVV

What does the source list for O=C1Nc2ccc(Cl)cc2/C1=C/c1ccc(N2CCOCC2)s1 [THK-308, 5-chloro-3-(5-morpholin-4-yl-thiophen-2-ylmethylene)-1,3-dihydroindol-2-one]?
Binding to (staining of) amyloid β protein in the brain section of an Alzheimer disease patient [1]: bound to the amyloid β protein; Specificity to amyloid β [1]: high specificity to amyloid β

Which results are given for CN(C)c1ccc(-c2nnc(-c3sc4cc(Cl)ccc4c3Cl)o2)cc1 [THK-262, [4-[5-(3,6-dichloro-benzo[b]thiophen-2-yl)-[1,3,4]oxadiazol-2-yl]-phenyl]-dimethylamine]?
Binding to (staining of) amyloid β protein in the brain section of an Alzheimer disease patient [1]: bound to the amyloid β protein; Specificity to amyloid β [1]: high specificity to amyloid β

Which “Binding to (staining of) amyloid β protein in the brain section of an Alzheimer disease patient” value (“Binding” for short) [1] does the source give for CN(C)c1ccc(/C=C/C23NC(=O)CN2c2ccc(Br)cc2C3(C)C)cc1 (centres unmarked) [THK-556, 7-bromo-9a-[2-(4-dimethyl-amino-phenyl)-vinyl]-9,9-dimethyl-9,9a-dihydro-1H-imidazo[1,2-a]indol-2-one] here?
Its value is “bound to the amyloid β protein”.

What about the “Specificity to amyloid β” value [1] of the same molecule?
Its value is “high specificity to amyloid β”.

For c1csc(-c2nnc(-c3ccc(N4CCOCC4)cc3)o2)c1 [THK-383, 4-[4-(5-thiophen-2-yl-[1,3,4]oxadiazol-2-yl)-phenyl]-morpholine], which “Binding” value [1] is on record?
Its value is “bound to the amyloid β protein”.

What about the “Specificity to amyloid β” value [1] of the same molecule?
Its value is “high specificity to amyloid β”.

Which “Maximum Permissible Dose (mg/kg, intravenous administration)” value (“Maximum Permissible Dose” below) (Acute Toxicity Test) does the source give for OCC(CF)Oc1ccc2nc(/C=C/c3cnc(N4CCCOC4)s3)oc2c1 (centres unmarked) [THK-757, (E)-6-[(1-fluoromethyl-2-hydroxy)ethoxy]-2-[2-[2-([1,3]oxadinan-3-yl)-thiazol-5-yl]ethenyl] benzoxazole] here?
The value was “≧10 mg/kg”.

And the activity at 10 µM (Amyloid β protein 1-40; [2])?
The activity at 10 µM was 52.4%.

What about the activity at 10 µM (Amyloid β protein 1-40; [3]) of the same molecule?
Its activity at 10 µM is 24.8%.

What about the activity at 10 µM (Amyloid β protein 1-40; [4]) of the same molecule?
The activity at 10 µM was 10.3%.

For Cc1ccc2c(c1)C(C)(C)C1(/C=C/C=C/c3ccc(N(C)C)cc3)NC(=O)CCN21 (centres unmarked) [THK-565], which “Binding” value [1] is on record?
Its value is “bound to the amyloid β protein”.

And the “Specificity to amyloid β” value [1]?
Its value is “high specificity to amyloid β”.

For OCC(CF)Oc1ccc2nc(/C=C/c3cnc(N4CCCCCC4)s3)oc2c1 (centres unmarked) [THK-765, (E)-6-[(1-fluoromethyl-2-hydroxy)ethoxy]-2-[2-[2-(homopiperidin-1-yl)thiazol-5-yl]ethenyl]benzoxazole], which “Maximum Permissible Dose” value (Acute Toxicity Test) is on record?
The value was “≧10 mg/kg”.

And the activity at 10 µM (Amyloid β protein 1-40; [2])?
Its activity at 10 µM is 71.2%.

What about the activity at 10 µM (Amyloid β protein 1-40; [3]) of the same molecule?
The activity at 10 µM was 41.3%.

What about the activity at 10 µM (Amyloid β protein 1-40; [4]) of the same molecule?
Its activity at 10 µM is 23%.

With O=C1Nc2ccc(Cl)cc2/C1=C/c1ccc(N2CCOCC2)cc1 [THK-276, 5-chloro-3-(4-morpholin-4-yl-benzylidene)-1,3-dihydroindol-2-one] as the molecule, how does the “Binding” value [1] read?
Its value is “bound to the amyloid β protein”.

What about the “Specificity to amyloid β” value [1] of the same molecule?
Its value is “high specificity to amyloid β”.

With CN(C)c1ccc(/C=C\C=C2C(=O)c3ccccc3C2=O)cc1 [THK-248, 2-[3-(4-dimethylamino-phenyl)-allylidene]-indane-1,3-dione] as the molecule, how does the “Binding” value [1] read?
The value was “bound to the amyloid β protein”.

What about the “Specificity to amyloid β” value [1] of the same molecule?
Its value is “high specificity to amyloid β”.

Which “Binding” value [1] does the source give for OCC(CF)Oc1ccc2nc(/C=C/c3cnc(N4CCCOCC4)s3)oc2c1 (centres unmarked) [THK-766, (E)-6-[(1-fluoromethyl-2-hydroxy)ethoxy]-2-[2-[2-homomorpholinothiazol-5-yl)ethenyl]benzoxazole] here?
The value was “white space arrow indicates amyloid β protein”.

And the “Maximum Permissible Dose” value (Acute Toxicity Test)?
Its value is “≧10 mg/kg”.

And the activity at 10 µM (Amyloid β protein 1-40; [2])?
The activity at 10 µM was 61%.

And the activity at 10 µM (Amyloid β protein 1-40; [3])?
The activity at 10 µM was 21.5%.

And the activity at 10 µM (Amyloid β protein 1-40; [4])?
Its activity at 10 µM is 11.2%.

With CN(C)c1ccc(/C=C/C23NC(=O)CCN2c2ccc(Br)cc2C3(C)C)cc1 (centres unmarked) [THK-558, 8-bromo-10a-[2-(4-dimethyl-amino-phenyl)-vinyl]-10,10-dimethyl 1-3,4,10,10a-tetrahydro-1H-pyrimido[1,2-a]indol-2-one] as the molecule, how does the “Binding” value [1] read?
The value was “bound to the amyloid β protein”.

What about the “Specificity to amyloid β” value [1] of the same molecule?
Its value is “high specificity to amyloid β”.
